Assays:
KV10.1 (Eag1) = biological target: T1, KV10.1 (Eag1) (Homo sapiens, UniProt O95259); assay: Whole-cell patch-clamp on stably transfected HEK-293 cells expressing KV10.1; format: cell-based
T1 construct: expressed in transfected cells; host or cells: HEK-293 (stably transfected)
T1 sequence (O95259 1-962 isoform O95259-2): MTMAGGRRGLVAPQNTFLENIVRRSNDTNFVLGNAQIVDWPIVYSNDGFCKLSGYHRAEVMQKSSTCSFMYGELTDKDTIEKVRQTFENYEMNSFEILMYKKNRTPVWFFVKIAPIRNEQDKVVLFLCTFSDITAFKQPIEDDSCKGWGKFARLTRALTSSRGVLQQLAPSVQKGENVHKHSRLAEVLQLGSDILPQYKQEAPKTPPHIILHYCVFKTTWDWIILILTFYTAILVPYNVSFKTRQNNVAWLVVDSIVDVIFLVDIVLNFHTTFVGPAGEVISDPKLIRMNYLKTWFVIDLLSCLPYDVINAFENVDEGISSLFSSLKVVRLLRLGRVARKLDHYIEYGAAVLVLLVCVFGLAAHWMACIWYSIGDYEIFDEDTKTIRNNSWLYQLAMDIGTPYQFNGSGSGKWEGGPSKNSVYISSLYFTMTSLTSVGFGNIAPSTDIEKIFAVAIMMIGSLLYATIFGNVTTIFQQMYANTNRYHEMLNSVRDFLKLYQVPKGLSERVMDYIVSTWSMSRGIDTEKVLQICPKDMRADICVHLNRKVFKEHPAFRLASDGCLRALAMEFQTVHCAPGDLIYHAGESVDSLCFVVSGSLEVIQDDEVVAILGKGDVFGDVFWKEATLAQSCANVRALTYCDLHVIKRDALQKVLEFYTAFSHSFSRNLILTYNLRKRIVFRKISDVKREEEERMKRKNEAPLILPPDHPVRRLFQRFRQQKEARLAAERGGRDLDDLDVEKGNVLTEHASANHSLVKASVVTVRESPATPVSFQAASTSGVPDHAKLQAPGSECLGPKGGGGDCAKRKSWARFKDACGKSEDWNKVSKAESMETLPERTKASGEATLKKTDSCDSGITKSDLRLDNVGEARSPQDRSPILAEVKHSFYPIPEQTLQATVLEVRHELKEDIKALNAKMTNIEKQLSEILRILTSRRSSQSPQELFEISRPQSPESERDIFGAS
Description: For whole-cell patch-clamp measurements, stably transfected HEK-293 cells expressing KV10.1 [26, 27, 28] were grown in DMEM with 10% FCS and 300 µg/mL Zeocin on glass coverslips coated with fibronectin. All experiments were conducted at room temperature under perfusion by gravity with extracellular solution (160 mM NaCl, 2.5 mM KCl, 2 mM CaCl2, 1 mM MgCl2, 10 mM Hepes pH 7.4 with NaOH, 8 mM glucose). Pipettes were made from #1 glass capillaries (WPI) and had 1–3 MΩ resistance. The intracellular solution contained 100 mM KCl, 45 mM N-methyl-D-glucamine, 10 mM 1,2-bis(o-aminophenoxy)ethane-N,N,N′,N′-tetraacetic acid (BAPTA), 10 mM Hepes pH 7.35. Stimulation was applied and data were acquired with an EPC10 Plus amplifier (HEKA Elektronik) controlled with Patch Master software. Compounds were applied with an 8-channel fast solution exchanger (ALA). Compounds were prepared to a stock concentration of 10 mM in DMSO. The control solution contained 0.5% DMSO. Stimuli consisted of 500 ms depolarizations to +40 mV.
All electrophysiological data are presented as means ± SEM of n ≥ 3 independent experiments unless otherwise indicated. Oocyte data were analysed using pClamp Clampfit 10.4 (Molecular Devices, Downingtown, PA, USA) and OriginPro 9 (Originlab, Northampton, MA, USA) or GraphPad Prism 8 software (GraphPad Software, Inc., San Diego, CA, USA). Patch-clamp data analysis was performed using FitMaster (HEKA Electronics), IgorPro (Wavemetrics, Inc., Lake Oswego, OR, USA) and GraphPad Prism 9 (GraphPad Software, Inc., San Diego, CA, USA). The Dunnett test and one-way ANOVA were performed to calculate the significance of the induced inhibition compared to the control (p < 0.05).

hERG = hERG (Homo sapiens, UniProt Q12809); assay: Whole-cell patch-clamp, hERG inhibition; format: cell-based; parameters: expressed in transfected cells; conditions: dose–response fit
Sequence of hERG (Q12809 whole entry): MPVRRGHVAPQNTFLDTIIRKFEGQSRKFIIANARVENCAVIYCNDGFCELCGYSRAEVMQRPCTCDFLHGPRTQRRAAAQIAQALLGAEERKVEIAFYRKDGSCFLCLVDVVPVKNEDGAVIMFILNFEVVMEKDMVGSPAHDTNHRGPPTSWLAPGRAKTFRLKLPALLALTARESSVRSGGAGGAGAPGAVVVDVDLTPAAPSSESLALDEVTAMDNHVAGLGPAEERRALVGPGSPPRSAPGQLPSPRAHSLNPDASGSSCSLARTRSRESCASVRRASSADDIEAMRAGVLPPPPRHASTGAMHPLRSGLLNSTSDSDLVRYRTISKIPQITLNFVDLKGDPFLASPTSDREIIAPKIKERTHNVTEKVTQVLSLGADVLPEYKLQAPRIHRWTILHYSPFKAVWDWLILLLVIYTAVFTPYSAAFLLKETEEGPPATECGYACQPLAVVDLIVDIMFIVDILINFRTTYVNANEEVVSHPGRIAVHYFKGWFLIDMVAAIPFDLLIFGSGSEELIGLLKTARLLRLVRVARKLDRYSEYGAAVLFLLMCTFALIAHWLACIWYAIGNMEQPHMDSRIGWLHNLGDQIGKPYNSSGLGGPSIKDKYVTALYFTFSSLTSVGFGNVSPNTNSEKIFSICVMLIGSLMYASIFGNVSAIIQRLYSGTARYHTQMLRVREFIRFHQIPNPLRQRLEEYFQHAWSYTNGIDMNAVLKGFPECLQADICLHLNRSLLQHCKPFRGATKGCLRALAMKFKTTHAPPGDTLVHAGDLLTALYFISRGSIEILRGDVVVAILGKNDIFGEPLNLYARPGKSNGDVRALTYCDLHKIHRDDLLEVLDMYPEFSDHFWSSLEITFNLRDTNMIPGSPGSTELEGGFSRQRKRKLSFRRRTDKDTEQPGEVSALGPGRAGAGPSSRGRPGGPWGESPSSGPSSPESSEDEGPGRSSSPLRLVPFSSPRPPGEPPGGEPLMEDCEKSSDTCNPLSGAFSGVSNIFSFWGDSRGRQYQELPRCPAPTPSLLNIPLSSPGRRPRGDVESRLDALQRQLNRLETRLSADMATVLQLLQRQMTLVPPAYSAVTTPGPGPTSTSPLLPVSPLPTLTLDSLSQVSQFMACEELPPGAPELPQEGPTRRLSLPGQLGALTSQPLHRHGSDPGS

MCF-7 cells = assay: Cell growth by Incucyte confluence, MCF-7; format: cell-based, human; conditions: 25 µM, 48–72 h
Description: (§1) MCF-7 (DSMZ ACC 115) and PANC-1 (DSMZ ACC 783) cells were grown as recommended by the cell supplier at 5% CO2 and 37 °C in a humidified atmosphere. For determining cell growth, cells were seeded in 96-well culture plates (Corning, Corning, NY, USA) at a density of 10^4 cells/well. After 24 h, the compounds were added diluted in medium. Six wells per condition were used. Four images of each well were collected at 1 h intervals for 48–72 h. Two biological replicates were performed. Images were acquired using an Incucyte device (Sartorius/Essen biosciences). Cell confluence was calculated using the Incucyte software on the phase contrast images. The results are expressed as percent confluence per well normalised to the value with no compounds added.

Panc-1 cells = assay: Cell growth by Incucyte confluence, Panc-1; format: cell-based, human; conditions: 25 µM, 48–72 h
Description: as §1

CN(C)CCOc1c(Br)cc(Nc2ccc(C(F)(F)F)cc2[N+](=O)[O-])cc1Br [Compound 18b, 3,5-Dibromo-4-(2-(dimethylamino)ethoxy)-N-(2-nitro-4-(trifluoromethyl)phenyl)aniline]
inhibition at 1 µM (KV10.1 (Eag1); HEK293, 1 μM, HEK-293 cells, patch-clamp, mean ± SEM): 73.5 ± 0.5%
IC50 (KV10.1 (Eag1); whole-cell patch-clamp, dose–response fit): 0.216 µM
IC50 (hERG): 0.0049 µM
reduction of proliferation of MCF-7 cells (MCF-7 cells): approximately half
reduction of proliferation of Panc-1 cells (Panc-1 cells): approximately half
